Laboratory results: patent US10597388B2, “Pyridazinone herbicides” (FMC CORPORATION, priority 2014, dated 2020)

Legend:
Test in all cases: Test D controlled growth environment herbicide test, pre- and postemergence
Assay type in all cases: in vivo
[1] = tested on: Russian thistle (Salsola kali)
How it was run: (§1)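 Species sown in silt loam and sprayed preemergence, or grown in peat-based medium to 2–18 cm (1- to 4-leaf stage) and sprayed postemergence, with compounds in non-phytotoxic solvent plus surfactant. Visual injury scored versus controls after 14–21 d in a controlled environment, 0 (no effect) to 100 (complete control).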

[2] = tested on: barley, winter (winter barley, Hordeum vulgare)
How it was run: as §1

[3] = tested on: bromegrass, downy (downy bromegrass, Bromus tectorum)
How it was run: as §1

[4] = tested on: chickweed (common chickweed, Stellaria media)
How it was run: as §1

[5] = tested on: deadnettle (henbit deadnettle, Lamium amplexicaule)
How it was run: as §1

[6] = tested on: field poppy (Papaver rhoeas)
How it was run: as §1

[7] = tested on: galium (catchweed bedstraw, Galium aparine)
How it was run: as §1

kochia (Kochia scoparia) = tested on: kochia (Kochia scoparia)
How it was run: as §1

[8] = tested on: lambsquarters (Chenopodium album)
How it was run: as §1

[9] = tested on: mustard, wild (wild mustard, Sinapis arvensis)
How it was run: as §1

[10] = tested on: speedwell (bird's-eye speedwell, Veronica persica)
How it was run: as §1

[11] = tested on: wheat, winter (winter wheat, Triticum aestivum)
How it was run: as §1

[12] = tested on: windgrass (Apera spica-venti)
How it was run: as §1

[13] = Postemergence, 31 g ai/ha, scale 0 to 100 (0 no effect, 100 complete control)
[14] = Postemergence, 125 g ai/ha, visual rating on scale 0 (no effect) to 100 (complete control), 14 to 21 d
[15] = Postemergence, 250 g ai/ha, scale 0 to 100 (0 no effect, 100 complete control)
[16] = Preemergence, 62 g ai/ha, scale 0 to 100 (0 no effect, 100 complete control)
[17] = Preemergence, 125 g ai/ha, scale 0 to 100 (0 no effect, 100 complete control)
[18] = Preemergence, 250 g ai/ha, scale 0 to 100 (0 no effect, 100 complete control)
[19] = postemergence, 62 g ai/ha, scale 0 to 100, 0 no effect, 100 complete control

Structure (SMILES): CCOC(=O)Oc1c(C)nn(C)c(=O)c1-c1c(C)ccc2ccccc12 [Compound 73]
- Russian Thistle plant response rating [1, 13]: 75
- Plant response rating, Russian Thistle [1, 14]: 80
- Plant response rating, Russian Thistle [1, 15]: 85
- Plant response rating (scale of 0 to 100), Russian Thistle ([1]; Preemergence, 31 g ai/ha): 10
- Plant response rating, Russian Thistle [1, 16]: 25
- Plant response rating, Russian Thistle [1, 17]: 40
- Plant response rating, Russian Thistle [1, 18]: 75
- Plant response rating, Russian Thistle [1, 19]: 80
- Barley, Winter plant response rating [2, 13]: 15
- Plant response rating, Barley, Winter [2, 14]: 20
- Plant response rating, Barley, Winter [2, 15]: 35
- Plant response rating (scale of 0 to 100), Barley, Winter ([2]; Preemergence, 31 g ai/ha): 5
- Plant response rating, Barley, Winter [2, 16]: 40
- Plant response rating, Barley, Winter [2, 17]: 60
- Plant response rating, Barley, Winter [2, 18]: 75
- Plant response rating, Barley, Winter [2, 19]: 15
- Bromegrass, Downy plant response rating [3, 13]: 25
- Plant response rating, Bromegrass, Downy [3, 14]: 70
- Plant response rating, Bromegrass, Downy [3, 15]: 85
- Plant response rating (scale of 0 to 100), Bromegrass, Downy ([3]; Preemergence, 31 g ai/ha): 20
- Plant response rating, Bromegrass, Downy [3, 16]: 40
- Plant response rating, Bromegrass, Downy [3, 17]: 50
- Plant response rating, Bromegrass, Downy [3, 18]: 90
- Plant response rating, Bromegrass, Downy [3, 19]: 55
- Chickweed plant response rating [4, 13]: 90
- Plant response rating, Chickweed [4, 14]: 100
- Plant response rating, Chickweed [4, 15]: 100
- Plant response rating (scale of 0 to 100), Chickweed ([4]; Preemergence, 31 g ai/ha): 95
- Plant response rating, Chickweed [4, 16]: 90
- Plant response rating, Chickweed [4, 17]: 100
- Plant response rating, Chickweed [4, 18]: 100
- Plant response rating, Chickweed [4, 19]: 95
- Deadnettle plant response rating [5, 13]: 75
- Plant response rating, Deadnettle [5, 14]: 100
- Plant response rating, Deadnettle [5, 15]: 100
- Plant response rating (scale of 0 to 100), Deadnettle ([5]; Preemergence, 31 g ai/ha): 0
- Plant response rating, Deadnettle [5, 16]: 0
- Plant response rating, Deadnettle [5, 17]: 70
- Plant response rating, Deadnettle [5, 18]: 100
- Plant response rating, Deadnettle [5, 19]: 90
- Field Poppy plant response rating [6, 13]: 75
- Plant response rating, Field Poppy [6, 14]: 100
- Plant response rating, Field Poppy [6, 15]: 100
- Plant response rating (scale of 0 to 100), Field Poppy ([6]; Preemergence, 31 g ai/ha): 70
- Plant response rating, Field Poppy [6, 16]: 100
- Plant response rating, Field Poppy [6, 17]: 100
- Plant response rating, Field Poppy [6, 18]: 100
- Plant response rating, Field Poppy [6, 19]: 100
- Galium plant response rating [7, 13]: 95
- Plant response rating, Galium [7, 14]: 100
- Plant response rating, Galium [7, 15]: 100
- Plant response rating (scale of 0 to 100), Galium ([7]; Preemergence, 31 g ai/ha): 40
- Plant response rating, Galium [7, 16]: 80
- Plant response rating, Galium [7, 17]: 80
- Plant response rating, Galium [7, 18]: 90
- Plant response rating, Galium [7, 19]: 100
- Kochia plant response rating (kochia (Kochia scoparia); [13]): 100
- Plant response rating, Kochia (kochia (Kochia scoparia); [14]): 100
- Plant response rating, Kochia (kochia (Kochia scoparia); [15]): 100
- Plant response rating (scale of 0 to 100), Kochia (kochia (Kochia scoparia); Preemergence, 31 g ai/ha): 30
- Plant response rating, Kochia (kochia (Kochia scoparia); [16]): 30
- Plant response rating, Kochia (kochia (Kochia scoparia); [17]): 85
- Plant response rating, Kochia (kochia (Kochia scoparia); [18]): 95
- Plant response rating, Kochia (kochia (Kochia scoparia); [19]): 80
- Lambsquarters plant response rating [8, 13]: 95
- Plant response rating, Lambsquarters [8, 14]: 100
- Plant response rating, Lambsquarters [8, 15]: 100
- Plant response rating (scale of 0 to 100), Lambsquarters ([8]; Preemergence, 31 g ai/ha): 95
- Plant response rating, Lambsquarters [8, 16]: 95
- Plant response rating, Lambsquarters [8, 17]: 95
- Plant response rating, Lambsquarters [8, 18]: 100
- Plant response rating, Lambsquarters [8, 19]: 95
- Mustard, Wild plant response rating [9, 13]: 85
- Plant response rating, Mustard, Wild [9, 14]: 100
- Plant response rating, Mustard, Wild [9, 15]: 100
- Plant response rating (scale of 0 to 100), Mustard, Wild ([9]; Preemergence, 31 g ai/ha): 65
- Plant response rating, Mustard, Wild [9, 16]: 80
- Plant response rating, Mustard, Wild [9, 17]: 100
- Plant response rating, Mustard, Wild [9, 18]: 100
- Plant response rating, Mustard, Wild [9, 19]: 100
- Speedwell plant response rating [10, 13]: 70
- Plant response rating, Speedwell [10, 14]: 100
- Plant response rating, Speedwell [10, 15]: 100
- Plant response rating (scale of 0 to 100), Speedwell ([10]; Preemergence, 31 g ai/ha): 100
- Plant response rating, Speedwell [10, 16]: 100
- Plant response rating, Speedwell [10, 17]: 100
- Plant response rating, Speedwell [10, 18]: 100
- Plant response rating, Speedwell [10, 19]: 100
- Wheat, Winter plant response rating [11, 13]: 25
- Plant response rating, Wheat, Winter [11, 14]: 65
- Plant response rating, Wheat, Winter [11, 15]: 75
- Plant response rating (scale of 0 to 100), Wheat, Winter ([11]; Preemergence, 31 g ai/ha): 15
- Plant response rating, Wheat, Winter [11, 16]: 40
- Plant response rating, Wheat, Winter [11, 17]: 50
- Plant response rating, Wheat, Winter [11, 18]: 75
- Plant response rating, Wheat, Winter [11, 19]: 35
- Windgrass plant response rating [12, 13]: 70
- Plant response rating, Windgrass [12, 14]: 75
- Plant response rating, Windgrass [12, 15]: 85
- Plant response rating (scale of 0 to 100), Windgrass ([12]; Preemergence, 31 g ai/ha): 40
- Plant response rating, Windgrass [12, 16]: 65
- Plant response rating, Windgrass [12, 17]: 90
- Plant response rating, Windgrass [12, 18]: 95
- Plant response rating, Windgrass [12, 19]: 70
